The source of these data is patent US20250214942A1, “INHIBITORS OF RECEPTOR INTERACTING PROTEIN KINASE I FOR THE TREATMENT OF DISEASE” (Board of Regents, The University of Texas System, priority 2019, published 2025).

Each structure is given as a SMILES string.

As a reminder, the IC50 is the concentration needed to halve the response being measured.

For the first assay, the system named is human monocytic cell line U937. As to the kind of experiment: Human U937 cellular necroptosis assay (TNFalpha + z-VAD-FMK, Cell Titer-Glo viability). It counts as cell-based. As to conditions: Homo sapiens, U-937, 22 h, U937 cells, 25 ng/mL human TNFalpha + 25 μM z-VAD-FMK, read-out: hU937 Avg IC50. The method, then: The human monocytic cell line U937 (CRL-1593.2) was purchased from ATCC. The cells were routinely maintained in RPMI-1640 Medium (Gibco, Catalog #11875-093) supplemented with 10% heat inactivated fetal bovine serum (Gibco, Catalog #16140-071), 100 units/mL penicillin and 100 μg/mL streptomycin (Gibco, Catalog #15140-122), in a humidified incubator (37° C., 5% CO2). For the assay, cells were resuspended in RPMI-1640 phenol red free Media (Gibco, Catalog #11835-030) supplemented with 10% fetal bovine serum (Sigma, Catalog #F2442), 100 units/mL penicillin and 100 ug/mL streptomycin. Cells were stimulated with 25 ng/mL human TNFalpha (Cell Sciences, Catalog #CSI15659B) and 25 μM z-VAD-FMK (R&D Systems, Catalog #FMK001) followed by seeding 5000 cells per well in a volume of 40 μL to a white, CulturPlate-384 (Perkin Elmer, Catalog #6007680). Stock solutions of the test compounds were prepared in 100% DMSO (Sigma, Catalog #D2650) and serially diluted 1:3 using 100% DMSO. Compounds were additionally diluted 1:40 in assay medium, and 10 μL/well was transferred to the plate. Following the compound addition the plate was incubated at 37° C. and 5% CO2 for 22 h. After 22 h, viability was assessed with the addition of 20 μL of Cell Titer-Glo 2.0 (Promega, Catalog #G9243). The tissue culture plate was shaken on an orbital shaker at 300 RPM for 15 minutes at rt in the dark. Luminescence was measured using a PerkinElmer Envision™ plate reader. IC50 values were calculated using a four-parameter logistic curve fit using Genedata Screener software. Results are shown below in Table 3, where the average value across multiple runs is given.
(Cellular ATP, detected with luciferase, serves as a proxy for viable cell number.)
For `N#Cc1ccc2c(cnn2CC23CC(C(=O)N4C[C@@H](O)C[C@H]4c4cccc(F)c4)(C2)C3)c1` (single isomer, unassigned) [Example 262], the half-inhibitory concentration (IC50) is 4670 nM.

For `N#Cc1ccc2c(cnn2CC23CC(C(=O)N4C[C@H](O)C[C@H]4c4cccc(F)c4)(C2)C3)c1` (single isomer, unassigned) [Example 263], the IC50 was 9500 nM.

For the compound `N#Cc1ccc2nn(CC34CC(C(=O)N5N=CCC5c5cncc(F)c5)(C3)C4)cc2c1` (centres unmarked) [Example 127, 2-((3-(5-(5-fluoropyridin-3-yl)-4,5-dihydro-1H-pyrazole-1-carbonyl)bicyclo[1.1.1]-pentan-1-yl)methyl)-2H-indazole-5-carbonitrile], the IC50 worked out at 1260 nM.

As for `Cc1ccc2c(cnn2CC23CC(C(=O)N4N=CCC4c4cc(F)cc(F)c4)(C2)C3)n1` (centres unmarked) [Example 165, (5-(3,5-difluorophenyl)-4,5-dihydro-1H-pyrazol-1-yl)(3-((5-methyl-1H-pyrazolo[4,3-b]pyridin-1-yl)methyl)-bicyclo[1.1.1]pentan-1-yl)methanone], the IC50 turned out to be 193 nM.

With `Cc1cc(F)c(C2CC=NN2C(=O)C23CC(COc4cnc(C#N)cn4)(C2)C3)cc1F` (centres unmarked) [Example 195, 5-((3-(5-(2,5-Difluoro-4-methylphenyl)-4,5-dihydro-1H-pyrazole-1-carbonyl)bicyclo[1.1.1]pentan-1-yl)methoxy) pyrazine-2-carbonitrile], the IC50 stood at 1.5 nM.

For the compound `Cc1ccc(C2CC=NN2C(=O)C23CC(COc4cnc(C#N)cn4)(C2)C3)cc1` (centres unmarked) [Example 198, 5-((3-(5-(p-Tolyl)-4,5-dihydro-1H-pyrazole-1-carbonyl)bicyclo[1.1.1]pentan-1-yl)methoxy)pyrazine-2-carbonitrile], the IC50 stood at 7.4 nM.

Take `Cc1c(F)cc(C2CC=NN2C(=O)C23CC(Cn4ncc5cc(C#N)ccc54)(C2)C3)cc1F` (centres unmarked) [Example 203, 1-((3-(5-(3,5-Difluoro-4-methylphenyl)-4,5-dihydro-1H-pyrazole-1-carbonyl)bicyclo[1.1.1]pentan-1-yl)methyl)-1H-indazole-5-carbonitrile]: the IC50 was found to be 5.5 nM.

In the case of `Cn1cc(-c2ccc(OCC34CC(C(=O)N5N=CCC5c5cc(F)cc(F)c5)(C3)C4)c(F)c2)cn1` (centres unmarked) [Example 204, (5-(3,5-Difluorophenyl)-4,5-dihydro-1H-pyrazol-1-yl)(3-((2-fluoro-4-(1-methyl-1H-pyrazol-4-yl)phenoxy)methyl)bicyclo[1.1.1]pentan-1-yl)methanone], the 50% inhibitory concentration (IC50) worked out at 22 nM.

With `N#Cc1cnc(NCC23CC(C(=O)N4N=CCC4c4cc(F)cc(F)c4)(C2)C3)cn1` (centres unmarked) [Example 205, 5-(((3-(5-(3,5-Difluorophenyl)-4,5-dihydro-1H-pyrazole-1-carbonyl)bicyclo[1.1.1]pentan-1-yl)methyl)amino)pyrazine-2-carbonitrile], the 50% inhibitory concentration (IC50) was 436 nM.

Turning to `CN(CC12CC(C(=O)N3N=CCC3c3cc(F)cc(F)c3)(C1)C2)c1cnc(C#N)cn1` (centres unmarked) [Example 206, 5-(((3-(5-(3,5-Difluorophenyl)-4,5-dihydro-1H-pyrazole-1-carbonyl)bicyclo[1.1.1]pentan-1-yl)methyl)(methyl)amino)pyrazine-2-carbonitrile], the IC50 amounted to 109 nM.

For `N#Cc1cnc(OCC23CC(C(=O)N4N=CCC4c4ccc(F)c(CO)c4)(C2)C3)cn1` (centres unmarked) [Example 207, 5-((3-(5-(4-Fluoro-3-(hydroxymethyl)phenyl)-4,5-dihydro-1H-pyrazole-1-carbonyl)bicyclo[1.1.1]pentan-1-yl)methoxy)pyrazine-2-carbonitrile], the IC50 was 633 nM.

Take `N#Cc1cnc(OCC23CC(C(=O)N4[C@@H]5C[C@@H]5C[C@H]4c4cc(F)cc(F)c4)(C2)C3)cn1` [Example 209, 5-((3-((1R,3S,5R)-3-(3,5-difluorophenyl)-2-azabicyclo[3.1.0]hexane-2-carbonyl)bicyclo[1.1.1]pentan-1-yl)methoxy)pyrazine-2-carbonitrile]: the IC50 was 362 nM.

Consider `N#Cc1cnc2c(ccn2CC23CC(C(=O)N4N=CCC4c4cc(F)cc(F)c4)(C2)C3)n1` (centres unmarked) [Example 211, 5-((3-(5-(3,5-difluorophenyl)-4,5-dihydro-1H-pyrazole-1-carbonyl)bicyclo[1.1.1]pentan-1-yl)methyl)-5H-pyrrolo[2,3-b]pyrazine-2-carbonitrile], for which the IC50 was determined as 16 nM.

Regarding `N#Cc1cc2cnn(CC34CC(C(=O)N5N=CCC5c5cc(F)cc(F)c5)(C3)C4)c2cc1Cl` (centres unmarked) [Example 214, 6-chloro-1-((3-(5-(3,5-difluorophenyl)-4,5-dihydro-1H-pyrazole-1-carbonyl)-bicyclo[1.1.1]pentan-1-yl)-methyl)-1H-indazole-5-carbonitrile], the IC50 stood at 71 nM.

With `COc1ccc2c(cnn2CC23CC(C(=O)N4N=CCC4c4cc(F)cc(F)c4)(C2)C3)n1` (centres unmarked) [Example 215, (5-(3,5-difluorophenyl)-4,5-dihydro-1H-pyrazol-1-yl)(3-((5-methoxy-1H-pyrazolo[4,3-b]pyridin-1-yl)methyl)bicyclo-[1.1.1]pentan-1-yl)methanone], the IC50 turned out to be 80 nM.

In the case of `Cc1cc2n(CC34CC(C(=O)N5N=CCC5c5cc(F)cc(F)c5)(C3)C4)ccn2n1` (centres unmarked) [Example 216, (5-(3,5-difluorophenyl)-4,5-dihydro-1H-pyrazol-1-yl)(3-((6-methyl-1H-imidazo[1,2-b]pyrazol-1-yl)methyl)bicyclo-[1.1.1]pentan-1-yl)methanone], the IC50 worked out at 92 nM.

On to `N#Cc1nc(C2CC2)nn1CC12CC(C(=O)N3N=CCC3c3cc(F)cc(F)c3)(C1)C2` (centres unmarked) [Example 217, 3-cyclopropyl-1-((3-(5-(3,5-difluorophenyl)-4,5-dihydro-1H-pyrazole-1-carbonyl)-bicyclo[1.1.1]pentan-1-yl)-methyl)-1H-1,2,4-triazole-5-carbonitrile], for which the IC50 is 99 nM.

Regarding `N#Cc1cc2cn(CC34CC(C(=O)N5N=CCC5c5cc(F)cc(F)c5)(C3)C4)nc2cc1Cl` (centres unmarked) [Example 220, 6-chloro-2-((3-(5-(3,5-difluorophenyl)-4,5-dihydro-1H-pyrazole-1-carbonyl)-bicyclo[1.1.1]pentan-1-yl)-methyl)-2H-indazole-5-carbonitrile], the IC50 turned out to be 312 nM.

Consider `N#Cc1nc(C2CC2)n(CC23CC(C(=O)N4N=CCC4c4cc(F)cc(F)c4)(C2)C3)n1` (centres unmarked) [Example 221, 5-cyclopropyl-1-((3-(5-(3,5-difluorophenyl)-4,5-dihydro-1H-pyrazole-1-carbonyl)-bicyclo[1.1.1]pentan-1-yl)-methyl)-1H-1,2,4-triazole-3-carbonitrile], for which the IC50 came out at 992 nM.

In the case of `Cc1nc(CC#N)nn1CC12CC(C(=O)N3N=CCC3c3cc(F)cc(F)c3)(C1)C2` (centres unmarked) [Example 223, 2-(1-((3-(5-(3,5-difluoro-phenyl)-4,5-dihydro-1H-pyrazole-1-carbonyl)bicyclo-[1.1.1]pentan-1-yl)methyl)-5-methyl-1H-1,2,4-triazol-3-yl)acetonitrile], the IC50 came to 9740 nM.

For the compound `N#Cc1ccc(OCC23CC(C(=O)N4N=CCC4c4cc(F)cc(F)c4)(C2)C3)cn1` (centres unmarked) [Example 224, 5-((3-(5-(3,5-difluorophenyl)-4,5-dihydro-1H-pyrazole-1-carbonyl)bicyclo[1.1.1]pentan-1-yl)methoxy)picolinonitrile], the half-inhibitory concentration (IC50) turned out to be 51 nM.

As for `Cc1cc(C#N)cnc1OCC12CC(C(=O)N3N=CCC3c3cc(F)cc(F)c3)(C1)C2` (centres unmarked) [Example 225, 6-((3-(5-(3,5-difluorophenyl)-4,5-dihydro-1H-pyrazole-1-carbonyl)bicyclo[1.1.1]pentan-1-yl)methoxy)-5-methyl-nicotinonitrile], the IC50 was 92 nM.

On to `O=C(N1N=CCC1c1cc(F)cc(F)c1)C12CC(C(F)c3cc(F)cc(Cl)c3)(C1)C2` (centres unmarked) [Example 227, (3-((3-chloro-5-fluorophenyl-)fluoromethyl)bicyclo[1.1.1]-pentan-1-yl)(5-(3,5-difluoro-phenyl)-4,5-dihydro-1H-pyrazol-1-yl)methanone], for which the IC50 stood at 133 nM.

Turning to `COc1cc(C(F)C23CC(C(=O)N4N=CCC4c4cc(F)cc(F)c4)(C2)C3)ncn1` (centres unmarked) [Example 229, (5-(3,5-difluorophenyl)-4,5-dihydro-1H-pyrazol-1-yl)(3-(fluoro(6-methoxypyrimidin-4-yl)methyl)bicyclo[1.1.1]-pentan-1-yl)methanone], the IC50 was 5060 nM.

For `COc1ccc(C(O)C23CC(C(=O)N4N=CCC4c4cc(F)cc(F)c4)(C2)C3)cc1` (centres unmarked) [Example 231, (5-(3,5-difluorophenyl)-4,5-dihydro-1H-pyrazol-1-yl)(3-(hydroxy(4-methoxyphenyl)-methyl)bicyclo[1.1.1]pentan-1-yl)methanone], the IC50 was determined as 3040 nM.

Staying with this assay, now noted: U937 cells, 25 ng/mL human TNFalpha + 25 μM z-VAD-FMK, 22 h; read-out: hU937 Avg IC50.
With `O=C(N1N=CCC1c1cc(F)cc(F)c1)C12CC(Cn3ncc4ncccc43)(C1)C2` (centres unmarked) [Example 148, (3-((1H-pyrazolo[4,3-b]-pyridin-1-yl)methyl)bicyclo-[1.1.1]pentan-1-yl)(5-(3,5-difluorophenyl)-4,5-dihydro-1H-pyrazol-1-yl)methanone], the IC50 was 912 nM.
